# Measured values as given in patent US20260327234A1, “NOVEL COMPOUNDS AS CYP11A1 INHIBITORS AND METHODS OF USE THEREOF” (Shenzhen Ionova Life Science Co., Ltd., priority 2023, published 2026).
# Tests used:
# [1] = biological target: T1, testosterone (T) production in NCI-H295R cells (Homo sapiens, UniProt P05108); test: H295R Steroid Biosynthesis Inhibition Assay - inhibition of testosterone (T) production in NCI-H295R cells; type: cell-based; conditions: 48 h, LC-MS/MS, read-out: Inh. of T IC50
# T1 construct: testosterone measured by LC-MS/MS as downstream steroid
# T1 sequence (P05108 40-521): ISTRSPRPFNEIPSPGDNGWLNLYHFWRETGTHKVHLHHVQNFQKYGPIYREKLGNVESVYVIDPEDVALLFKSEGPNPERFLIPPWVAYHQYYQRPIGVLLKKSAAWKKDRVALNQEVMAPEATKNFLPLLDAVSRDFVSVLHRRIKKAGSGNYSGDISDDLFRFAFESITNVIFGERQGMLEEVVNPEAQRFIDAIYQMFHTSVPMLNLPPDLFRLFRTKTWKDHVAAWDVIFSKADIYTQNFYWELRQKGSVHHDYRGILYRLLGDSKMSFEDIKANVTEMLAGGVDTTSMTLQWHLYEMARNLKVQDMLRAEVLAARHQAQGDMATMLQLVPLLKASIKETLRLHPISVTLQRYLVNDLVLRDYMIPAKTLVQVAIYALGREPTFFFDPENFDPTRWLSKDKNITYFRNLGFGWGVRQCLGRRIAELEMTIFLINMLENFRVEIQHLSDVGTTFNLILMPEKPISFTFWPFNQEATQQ
# Protocol: (§1) Steroid Biosynthesis Inhibition by test compounds in NCI-H295R cells (ATCC) was studied by measuring the cellular production of pregnenolone (P) catalyzed by CYP11A1 and the downstream steroid, testosterone (T). Cells were cultured in Dulbecco's modified eagle's medium F12 (DMEM/F12) with phenol red (Gibco, Cat. No. 11330032) supplemented with 2% UltroserG (Pall, Cat. No. 15950-017, USA), 1% ITS-Premix and 1% penicillin and streptomycin (Hyclone, Cat. No. SV30010, USA). Prior to the assay, cells were thawed and passed 4 times. The maximal passage number used for the assay was 10. For this assay, DMEM/F12 without phenol red supplemented with 10% charcoal-stripped fetal bovine serum (VivaCell, Cat. No. C3830-0500, USA) were used. In a 96-well plate, 60,000 cells/well were plated (90 μL/well) and incubated for 24 h. Test compounds, diluted in a serial dilution ranging from 1000 nM to 0.15 nM in the assay medium, were added to the plate. After 48 h of incubation, solution from each well were collected and transferred to individual 1.5 mL centrifuge tubes, and then 5 ng/mL deuterated testosterone (D3-testosterone) and 50 ng/mL deuterated pregnenolone (D4-pregnenolone) in 200 μL acetonitrile were added. After vigorously mixing for 5 min, the mixture was centrifuged at 12,700 rpm for 15 min. An aliquot of 250 μL supernatant was collected and dried under N2 stream. After addition of 150 μL Methanol:water (1:1, v/v) to the dried product, 50 μL sample of this solution was injected into the LC-MS/MS system for analysis.
# (§2) The half-maximal inhibitory concentration (IC50) for steroid biosynthesis inhibition was determined by curve-fitting with the 4-variable inhibitory dose response equation using GraphPad Prism software.
# (§3) Testosterone and pregnenolone were analyzed using Shimadzu LC30AD HPLC system (Shimadzu, Kyoto, Japan) coupled with AB SCIEX Qtrap 5500 triple quadrupole mass spectrometer (AB Sciex, Framingham, MA, USA) via ESI interface in the positive ionization mode. An ACQUITY UPLC BEH Shield RP18 column (1.7 μm, 2.1×50 mm, Milford, MA, USA) maintained at 40° C. was used to separate analytes and IS form the sample matrix.
# (§4) The mobile phase was a mixture of 10 mM ammonium acetate in water containing 0.2% formic acid (A) and methanol containing 0.2% formic acid (B) at a flow rate of 0.6 mL/min. The gradient program was set as follows: from 0 min to 0.5 min, 60% B; from 0.5 min to 3.5 min, 90% B; from 3.5 min to 4.5 min, 90% B; from 4.51 min to 5.0 min, 60% B. The injection volume was […].
# (§5) The MS/MS parameters were set as follows: ion spray voltage, 5500 V; curtain gas, 35 psi; Gas 1, 55 psi; Gas 2: 55 psi; temperature, […]. The optimized multiple reaction monitoring (MRM) fragmentation transitions and MS parameters of each analyte are summarized in Table 1.
# CYP11A1 = biological target: T2, CYP11A1 (Homo sapiens, UniProt P05108); test: H295R Steroid Biosynthesis Inhibition Assay - inhibition of pregnenolone (P) production catalyzed by CYP11A1 in NCI-H295R cells; type: cell-based; conditions: 48 h, LC-MS/MS, read-out: Inh. of P IC50
# T2 construct: measuring the cellular production of pregnenolone (P) catalyzed by CYP11A1; host or cells: NCI-H295R
# T2 sequence (P05108 40-521): T1 sequence (P05108 40-521)
# Protocol: as §1, §2, §3, §4, §5
IC50 [1],IC50 (CYP11A1),SMILES
≤ 0.04 µM,≤ 0.04 µM,O=c1cc(CN2Cc3ccccc3C2)oc2cc([C@@H]3CCC[C@@H](O)CC3)oc12 (racemic) [Compound 42]
0.041 to 0.1 µM,≤ 0.04 µM,"CS(=O)(=O)N1C[C@@H]2[C@@H](COc3coc(CN4Cc5ccccc5C4)cc3=O)[C@@H]2C1 [Compound 1, 2-(isoindolin-2-ylmethyl)-5-(((1R,5S,6r)-3-(methylsulfonyl)-3-azabicyclo[3.1.0]hexan-6-yl)methoxy)-4H-pyran-4-one]"
≤ 0.04 µM,≤ 0.04 µM,O=c1cc(CN2Cc3ccccc3C2)occ1OC[C@H]1CC[C@H](O)CC1 [Compound 2]
0.041 to 0.1 µM,≤ 0.04 µM,CS(=O)(=O)N1CCC(COc2coc(CN3CCn4cccc4C3)cc2=O)CC1 [Compound 3]
0.041 to 0.1 µM,≤ 0.04 µM,CS(=O)(=O)N1CCC(COc2coc(CN3CCn4c(Cl)ccc4C3)cc2=O)CC1 [Compound 4]
≥ 0.101 µM,≥ 0.1 µM,CS(=O)(=O)N1CCC(COc2coc(CN3CCc4sccc4C3)cc2=O)CC1 [Compound 5]
0.041 to 0.1 µM,≤ 0.04 µM,Cc1oc(CN2Cc3ccccc3C2)cc(=O)c1OCC1CCN(S(C)(=O)=O)CC1 [Compound 6]
≤ 0.04 µM,≤ 0.04 µM,CS(=O)(=O)N1CCC(COc2ccc(CN3Cc4ccccc4C3)c3ccccc23)CC1 [Compound 7]
≤ 0.04 µM,≤ 0.04 µM,CS(=O)(=O)N1CCC(COc2ccc(CN3CCc4ccccc4C3)c3cccnc23)CC1 [Compound 8]
≤ 0.04 µM,≤ 0.04 µM,CC(c1ccc(OCC2CCN(S(C)(=O)=O)CC2)c2ncccc12)N1Cc2ccccc2C1 (stereo not drawn) [Compound 9]
≥ 0.101 µM,0.04 to 0.1 µM,CS(=O)(=O)N1CCC(COc2ccc(C3(N4Cc5ccccc5C4)CC3)c3cccnc23)CC1 [Compound 10]
0.041 to 0.1 µM,≤ 0.04 µM,CC(Oc1ccc(CN2Cc3ccccc3C2)c2cccnc12)C1CCN(S(C)(=O)=O)CC1 (stereo not drawn) [Compound 11]
≤ 0.04 µM,≤ 0.04 µM,CC(c1ncc(OCC2CCN(S(C)(=O)=O)CC2)c2ncccc12)N1Cc2ccccc2C1 (stereo not drawn) [Compound 12]
≤ 0.04 µM,≤ 0.04 µM,"CS(=O)(=O)N1C[C@@H]2[C@H](C1)[C@H]2c1cc2oc(CN3Cc4ccccc4C3)cc(=O)c2o1 [Compound 13, 5-(isoindolin-2-ylmethyl)-2-((1R,5S,6r)-3-(methylsulfonyl)-3-azabicyclo[3.1.0]hexan-6-yl)-7H-furo[3,2-b]pyran-7-one]"
≤ 0.04 µM,≤ 0.04 µM,CS(=O)(=O)N1CCC(c2cc3oc(CN4Cc5ccccc5C4)cc(=O)c3o2)CC1 [Compound 14]
≤ 0.04 µM,≤ 0.04 µM,COC(=O)N1CCC(c2cc3oc(CN4Cc5ccccc5C4)cc(=O)c3o2)CC1 [Compound 15]
≥ 0.101 µM,0.04 to 0.1 µM,CS(=O)(=O)N1CCCC(c2cc3oc(CN4Cc5ccccc5C4)cc(=O)c3o2)C1 (stereo not drawn) [Compound 16]
≤ 0.04 µM,≤ 0.04 µM,CS(=O)(=O)N1CCC(c2cc3oc(CN4Cc5ccc(F)cc5C4)cc(=O)c3o2)CC1 [Compound 17]
≤ 0.04 µM,≤ 0.04 µM,Cc1ccc2c(c1)CN(Cc1cc(=O)c3oc(C4CCN(S(C)(=O)=O)CC4)cc3o1)C2 [Compound 18]
≤ 0.04 µM,≤ 0.04 µM,COc1ccc2c(c1)CN(Cc1cc(=O)c3oc(C4CCN(S(C)(=O)=O)CC4)cc3o1)C2 [Compound 19]
≤ 0.04 µM,≤ 0.04 µM,CS(=O)(=O)N1CCC(c2cc3oc(CN4Cc5ccc(C(F)(F)F)cc5C4)cc(=O)c3o2)CC1 [Compound 20]
≥ 0.101 µM,≥ 0.1 µM,CS(=O)(=O)N1CCC(c2cc3oc(CN4CCc5ccccc5C4)cc(=O)c3o2)CC1 [Compound 21]
≤ 0.04 µM,≤ 0.04 µM,CS(=O)(=O)N1CCC2(CC1)CC(c1cc3oc(CN4Cc5ccccc5C4)cc(=O)c3o1)C2 [Compound 22]

IC50 [1],IC50 (CYP11A1),SMILES
≤ 0.04 µM,≤ 0.04 µM,CS(=O)(=O)N1CC2(CC(c3cc4oc(CN5Cc6ccccc6C5)cc(=O)c4o3)C2)C1 [Compound 23]
≤ 0.04 µM,≤ 0.04 µM,O=c1cc(CN2Cc3ccccc3C2)oc2cc(C3CC4(CC(O)C4)C3)oc12 (stereo not drawn) [Compound 24]
≤ 0.04 µM,≤ 0.04 µM,O=c1cc(CN2Cc3ccccc3C2)oc2cc(C3CC4(COC4)C3)oc12 [Compound 25]
≥ 0.101 µM,0.04 to 0.1 µM,O=c1cc(CN2Cc3ccccc3C2)oc2cc(C3CCC(F)(F)CC3)oc12 [Compound 26]
≤ 0.04 µM,≤ 0.04 µM,C[C@]1(O)CC[C@H](c2cc3oc(CN4Cc5ccccc5C4)cc(=O)c3o2)CC1 [Compound 27]
≥ 0.101 µM,≤ 0.04 µM,C[C@]1(O)CC[C@@H](c2cc3oc(CN4Cc5ccccc5C4)cc(=O)c3o2)CC1 [Compound 28]
≤ 0.04 µM,≤ 0.04 µM,O=c1cc(CN2Cc3ccccc3C2)oc2cc([C@H]3CC[C@H](O)CC3)oc12 [Compound 29]
≤ 0.04 µM,≤ 0.04 µM,O=c1cc(CN2Cc3ccccc3C2)oc2cc([C@@H]3CC[C@@H](O)[C@@H](F)C3)oc12 [Compound 30]
≤ 0.04 µM,≤ 0.04 µM,CC(c1cc(=O)c2oc([C@H]3CC[C@H](O)CC3)cc2o1)N1Cc2ccccc2C1 (stereo partly drawn) [Compound 31]
≤ 0.04 µM,0.04 to 0.1 µM,CC(C)(O)[C@H]1CC[C@H](c2cc3oc(CN4Cc5ccccc5C4)cc(=O)c3o2)CC1 [Compound 32]
0.041 to 0.1 µM,0.04 to 0.1 µM,O=c1cc(CN2Cc3ccccc3C2)oc2cc([C@H]3CC4CCC(C3)[C@H]4O)oc12 [Compound 33]
≤ 0.04 µM,≤ 0.04 µM,O=c1cc(CN2Cc3ccccc3C2)oc2cc(C34CCC(O)(CC3)CC4)oc12 [Compound 34]
0.041 to 0.1 µM,≤ 0.04 µM,O=c1cc(CN2Cc3ccccc3C2)oc2cc(C3CCC(O)C3)oc12 (stereo not drawn) [Compound 35]
≥ 0.101 µM,0.04 to 0.1 µM,O=c1cc(CN2Cc3ccccc3C2)oc2cc([C@@H]3CCC[C@@H](O)C3)oc12 [Compound 36]
≤ 0.04 µM,0.04 to 0.1 µM,O=c1cc(CN2Cc3ccccc3C2)oc2cc([C@H]3CC[C@@](O)(C(F)(F)F)CC3)oc12 [Compound 37]
≤ 0.04 µM,≤ 0.04 µM,CO[C@H]1CC[C@H](c2cc3oc(CN4Cc5ccccc5C4)cc(=O)c3o2)CC1 [Compound 38]
≤ 0.04 µM,≤ 0.04 µM,O=c1cc(CN2Cc3ccccc3C2)oc2cc(C3C4CC(O)CC43)oc12 (stereo not drawn) [Compound 39]
≤ 0.04 µM,≤ 0.04 µM,O=c1cc(CN2Cc3ccccc3C2)oc2cc([C@H]3CC[C@@]4(O)CC4C3)oc12 (stereo partly drawn) [Compound 40]
≤ 0.04 µM,≤ 0.04 µM,C[C@]1(c2cc3oc(CN4Cc5ccccc5C4)cc(=O)c3o2)CC[C@H](O)CC1 [Compound 41]
0.041 to 0.1 µM,≤ 0.04 µM,N#C[C@]1(c2cc3oc(CN4Cc5ccccc5C4)cc(=O)c3o2)CC[C@H](O)CC1 [Compound 43]
≤ 0.04 µM,≤ 0.04 µM,CS(=O)(=O)N[C@H]1CC[C@H](c2cc3oc(CN4Cc5ccccc5C4)cc(=O)c3o2)CC1 [Compound 44]
≤ 0.04 µM,≤ 0.04 µM,COC(=O)N[C@H]1CC[C@H](c2cc3oc(CN4Cc5ccccc5C4)cc(=O)c3o2)CC1 [Compound 45]
